We go through 14 molecules from ChEMBL document CHEMBL1201862, “PubChem BioAssay data set” (2004).

Test systems include OVCAR-8; M14; NCI-H460; ACHN; A498; MOLT-4; NCI-H226; UO-31; CCRF-CEM; A549; HCC 2998; HT-29; U-251; KM12; SK-OV-3.
Common to all, as to experiment: NCI-60 cell line screen, 48 h

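Five compound concentrations were applied to cells in 96-well plates for 48 hours; endpoints were derived by simple linear interpolation of the resulting dose-response curve. GI50 = concentration required for 50% inhibition of growth.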 Active and inactive are the calls of the source. Cut-off read from the data, not from the text of the source: active = GI50 up to about 1.1 µM and inactive = higher.

With `O=C1CCCCCCCCCCC1CN1CCCCC1` (stereo unspecified), the GI50 was > 100 µM (inactive) with OVCAR-8; > 10 µM (inactive) in the test on M14; 51.1 µM (inactive) in the test with NCI-H460; > 100 µM (inactive) in the test with ACHN; > 100 µM (inactive) in the test on A498; 57 µM (inactive) with MOLT-4. The GI50 with NCI-H226 was 28.2 µM (inactive); in the test with UO-31, 39 µM (inactive); in the test with CCRF-CEM it was 66.8 µM (inactive); with A549, > 100 µM (inactive); in the test on HCC 2998, > 100 µM (inactive); in the test on HT-29 it was 35.6 µM (inactive). Also, the results for the GI50 in the test with U-251 and in the test on KM12 were 75.3 µM (inactive) and 71.1 µM (inactive), respectively.

As for `COc1ccc(C(=O)Cc2ccc(Br)cc2)cc1OC`, the GI50 in the test with OVCAR-8 is > 100 µM (inactive); in the test with M14 it was > 100 µM (inactive); in the test on NCI-H460, > 100 µM (inactive); in the test on ACHN, > 100 µM (inactive); in the test with A498, 40.4 µM (inactive); in the test on MOLT-4 it was > 100 µM (inactive). Further, the GI50 in the test with NCI-H226, in the test with UO-31, in the test with CCRF-CEM, in the test with A549, in the test with HCC 2998 and with HT-29 was > 100 µM (inactive) each time. In addition, the GI50 in the test with SK-OV-3 and with U-251 was > 100 µM (inactive) throughout.

As to `CN(c1ccccc1)c1nc(=[N+]2CCCC2)ss1.[O-][Cl+3]([O-])([O-])[O-]`, the GI50 was > 100 µM (inactive) with OVCAR-8; > 100 µM (inactive) in the test with M14; 1.85 µM (inactive) with NCI-H460; > 100 µM (inactive) with ACHN; > 100 µM (inactive) with A498; > 100 µM (inactive) in the test on MOLT-4. Further, the GI50 in the test with NCI-H226, with UO-31, with CCRF-CEM, in the test with A549, in the test with HCC 2998 and in the test on SK-OV-3 was > 100 µM (inactive) throughout. Further, the GI50 in the test on U-251 and with KM12 was > 100 µM (inactive) in each case.

As to `C/C(=N/Nc1ccc([N+](=O)[O-])cc1[N+](=O)[O-])C(CC(C(=O)NCc1ccccc1)/C(C)=N\Nc1ccc([N+](=O)[O-])cc1[N+](=O)[O-])C(=O)NCc1ccccc1` (stereo unspecified), the GI50 in the test with OVCAR-8 is 2.14 µM (inactive); in the test with M14, 8.04 µM (inactive); in the test with NCI-H460 it was 5.51 µM (inactive); in the test with ACHN, 5.46 µM (inactive); in the test with A498, 14.8 µM (inactive); in the test on NCI-H226, 11.2 µM (inactive). Besides, the GI50 in the test with UO-31 was 2.39 µM (inactive); in the test with A549, 4.4 µM (inactive); in the test on HCC 2998 it was 13.2 µM (inactive); in the test on HT-29, 6.14 µM (inactive); in the test on SK-OV-3, 15.6 µM (inactive); in the test with U-251 it was 3.25 µM (inactive). The GI50 in the test with KM12 is 4.86 µM (inactive).

`O=C(Cn1ccnc1[N+](=O)[O-])c1ccc(F)cc1`: the GI50 in the test on OVCAR-8, in the test on M14, with NCI-H460, in the test with ACHN, with A498 and with MOLT-4 was > 100 µM (inactive) throughout. In addition, the GI50 in the test with NCI-H226, with UO-31, in the test on CCRF-CEM, with A549, in the test on HT-29 and with SK-OV-3 was > 100 µM (inactive) throughout. Moreover, the GI50 in the test on U-251 and with KM12 was > 100 µM (inactive) each time.

On to `Cc1cc(O)c(C(=O)O)c2c1C(=O)c1c(O)c(OCC(O)C(O)C(O)C(O)CO)c(O)c(O)c1C2=O.NCCNCCO` (stereo unspecified), for which the GI50 with OVCAR-8, in the test on M14, in the test on A498, in the test on MOLT-4, in the test with NCI-H226 and in the test on UO-31 was > 100 µM (inactive) throughout. In addition, the GI50 in the test with CCRF-CEM, in the test with A549, in the test with HCC 2998, in the test on HT-29, with SK-OV-3 and with U-251 was > 100 µM (inactive) each time. The GI50 in the test with KM12 is 39.9 µM (inactive).

`COC(=O)C1(c2ccc(OC)cc2)NC(c2ccccc2)C2C(=O)N(c3ccc(OC)cc3)C(=O)C21` (stereo unspecified): the GI50 in the test on OVCAR-8, with M14, in the test with NCI-H460, in the test on ACHN, in the test with A498 and in the test with MOLT-4 was > 100 µM (inactive) each time. Besides, the GI50 in the test on UO-31, with CCRF-CEM, in the test on A549, in the test on HCC 2998, in the test with HT-29 and in the test with SK-OV-3 was > 100 µM (inactive) in each case. The GI50 in the test with U-251 and with KM12 was > 100 µM (inactive) each time.

Consider `CN(C)[C@@H]1C(O)=C(C(=O)NCN2CCN(C(=N)NC(=N)N)CC2)C(=O)[C@@]2(O)C(O)=C3C(=O)c4c(O)cccc4[C@@](C)(O)[C@H]3C[C@@H]12`, for which the GI50 was 0.273 µM (active) in the test with OVCAR-8; 0.279 µM (active) with M14; 0.324 µM (active) with NCI-H460; 0.306 µM (active) with ACHN; 1.14 µM (inactive) in the test with A498; 0.0597 µM (active) in the test on MOLT-4. Further, the GI50 is 0.301 µM (active) with UO-31; 0.11 µM (active) in the test on CCRF-CEM; 0.337 µM (active) with HCC 2998; 0.123 µM (active) with HT-29; 1.29 µM (inactive) with SK-OV-3; 0.269 µM (active) in the test with U-251. In addition, the GI50 in the test on KM12 was 0.368 µM (active).

On to `N#CC1=C(c2ccccc2)NNC(c2ccc(Cl)cc2)CC1=O` (stereo unspecified), for which the GI50 is 25.6 µM (inactive) with M14; 36.1 µM (inactive) with NCI-H460; 49.2 µM (inactive) in the test on ACHN; 68.7 µM (inactive) with A498; 58.7 µM (inactive) in the test on MOLT-4; 0.165 µM (active) with NCI-H226. Also, the GI50 was 39.9 µM (inactive) with A549; 56.6 µM (inactive) in the test with HCC 2998; 30.8 µM (inactive) with HT-29; 44.4 µM (inactive) in the test on SK-OV-3; 57.8 µM (inactive) in the test with U-251; 38 µM (inactive) with KM12.

In the case of `CC(Oc1ccc(OCC2CCCCC2)cc1)C(=O)NCc1ccco1` (stereo unspecified), the GI50 with OVCAR-8 was 24.9 µM (inactive); with M14 it was 18.7 µM (inactive); in the test with NCI-H460 it was 48.1 µM (inactive); with ACHN, 36.1 µM (inactive); in the test on A498, 24.7 µM (inactive); with MOLT-4, 34.9 µM (inactive). For the same molecule, the GI50 in the test with NCI-H226 is 28.8 µM (inactive); with UO-31, 28.3 µM (inactive); in the test with CCRF-CEM it was 41 µM (inactive); in the test with A549, 34.9 µM (inactive); with HCC 2998, 36.6 µM (inactive); with HT-29 it was 22.1 µM (inactive). The results for the GI50 in the test on SK-OV-3, with U-251 and in the test on KM12 were 98.9 µM (inactive), 36.6 µM (inactive) and 37.1 µM (inactive), respectively.

Take `C/C(=N\O)C(CN(C)C)C(c1ccccc1)c1c(O)c2ccccc2oc1=O` (stereo unspecified): the GI50 in the test on OVCAR-8, in the test with M14, in the test on A498, in the test on MOLT-4, in the test with NCI-H226 and in the test with UO-31 was > 100 µM (inactive) throughout. Moreover, the GI50 in the test on CCRF-CEM, in the test with A549, in the test on HCC 2998, in the test with HT-29, with SK-OV-3 and in the test on U-251 was > 100 µM (inactive) in each case. Further, the GI50 in the test with KM12 was > 100 µM (inactive).

Regarding `N#C/N=C(/N)NCc1ccccc1`, the GI50 in the test with OVCAR-8, with M14, in the test on NCI-H460, in the test on ACHN, in the test with A498 and in the test with MOLT-4 was > 100 µM (inactive) in each case. Moreover, the GI50 is > 100 µM (inactive) in the test with NCI-H226; > 100 µM (inactive) in the test with UO-31; > 100 µM (inactive) in the test with CCRF-CEM; > 100 µM (inactive) in the test with A549; 23.4 µM (inactive) in the test with HCC 2998; > 100 µM (inactive) in the test on HT-29. Besides, the GI50 in the test with SK-OV-3, in the test with U-251 and with KM12 was > 100 µM (inactive) each time.

Take `CCOC(=O)[C@H]1Nc2ccc(C)cc2C2c3ccccc3CC21` (stereo partly specified): the GI50 in the test on OVCAR-8 is > 100 µM (inactive); in the test with M14, > 100 µM (inactive); in the test on NCI-H460, > 100 µM (inactive); in the test on ACHN, > 100 µM (inactive); in the test with A498 it was 33.4 µM (inactive); with MOLT-4, > 100 µM (inactive). In addition, the GI50 in the test with NCI-H226, in the test with UO-31, in the test with A549, in the test with HCC 2998, in the test with HT-29 and in the test with U-251 was > 100 µM (inactive) in each case. The GI50 in the test with KM12 is > 100 µM (inactive).

Regarding `O=S1(=O)C[C@@H](O)[C@H](O)CS1`, the GI50 in the test with OVCAR-8, in the test with M14, in the test on NCI-H460, in the test with ACHN, with A498 and in the test on MOLT-4 was > 100 µM (inactive) each time. For the same molecule, the GI50 in the test on NCI-H226, in the test on UO-31, in the test with A549, in the test with HCC 2998, in the test on HT-29 and in the test with SK-OV-3 was > 100 µM (inactive) in each case. The GI50 in the test on U-251 and in the test on KM12 was > 100 µM (inactive) each time.
